Assay results as given in US20210330611A1, “THERAPY FOR NEUROLOGICAL DISEASES/DISORDERS” (priority 2020, published 2021).
Read-outs that look alike come from different tables or passages of the source.

Key:
primary rat microglia [1] = test: Cell toxicity (dead cells, size <150 μm2) in LPS assay; conditions: for IC50: read-out: Cell Toxicity IC50 (uM) [LPS assay]
[2] = tested on: LPS-induced microglia activation; test: Image-based assay of LPS-induced microglia activation (HTS and dose response); format: cell-based, rat; conditions: for inhibition at 10 µM: Rattus norvegicus, Microglia, read-out: LPS % inhibition
primary rat microglia [3] = test: Cell toxicity (dead cells, size <150 μm2) in coated fibrin (cFib) assay; conditions: for IC50: read-out: Cell Toxicity IC50 (uM) [cFib assay];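 as to Fibrin % cell toxicity: share of dead cells sized under 150 µm2 at 10 µM in fibrin-stimulated microglia HTS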
[4] = tested on: fibrin- and LPS-induced microglia activation; test: cells; format: cell-based, rat
[5] = tested on: fibrin-induced microglia activation; test: Image-based assay of fibrin-induced microglia activation (HTS and dose response); format: cell-based, rat; conditions: for inhibition at 10 µM: Rattus norvegicus, Microglia, read-out: Fibrin % inhibition
[6] = primary microglia HTS, 10 μM, LPS assay, cell size <150 μm^2 as marker of toxicity
[7] = primary microglia HTS, 10 μM, LPS-stimulated, cell size >800 μm^2 as marker of activation
[8] = primary microglia HTS, 10 μM, fibrin assay, cell size <150 μm^2 as marker of toxicity
[9] = HTS of 1907 compounds, quadrant by fibrin and LPS inhibition
[10] = primary microglia HTS, 10 μM, fibrin-stimulated, cell size >800 μm^2 as marker of activation
[11] = primary microglia HTS, LPS stimulation, decreased size (<150 μm^2) as marker of toxicity
[12] = primary microglia HTS, fibrin stimulation, decreased size (<150 μm^2) as marker of toxicity
[13] = quadrant by fibrin and LPS inhibition in HTS of 1907 compounds
[14] = primary microglia HTS, fibrin stimulation, increased cell size (>800 μm^2) as marker of activation
[15] = primary microglia HTS, LPS stimulation, toxicity = cell size <150 μm2
[16] = primary microglia HTS, fibrin stimulation, toxicity = cell size <150 μm2
[17] = primary microglia HTS, fibrin stimulation, activation = cell size >800 μm2
[18] = 48 h, primary microglia HTS, LPS stimulation, increased cell size (>800 μm^2) as marker of activation
[19] = 48 h, primary microglia HTS, LPS stimulation, activation = cell size >800 μm2

For `C[C@]12CC[C@H]3[C@@H](CC[C@@]45O[C@@H]4C(O)=C(C#N)C[C@]35C)[C@@H]1CC[C@@H]2O` [Trilostane], the “LPS % cell toxicity” value (primary rat microglia [1]; [6]) was 0%, the inhibition at 10 µM [2, 7] was 11% and the “Fibrin % cell toxicity” value (primary rat microglia [3]; [8]) was 0%. The “Quadrant (FIG. 5b)” value [4, 9] was “Q4” and the inhibition at 10 µM [5, 10] was -24%.

In the case of Gentamicin sulfate [reference compound], the “LPS % cell toxicity” value (primary rat microglia [1]; [11]) is reported as 4%, the IC50 (primary rat microglia [1]; LPS assay) is reported as over 20 µM and the IC50 (primary rat microglia [1]; Table 3) is reported as over 20 µM. It also gave an IC50 ([2]; LPS-induced microglia activation, dose response, read-out: LPS IC50 (uM) (Suppl. Table 7)) of over 20 µM, an IC50 ([2]; Table 1, dose response 0.001-20 μM, triplicates, primary rat microglia, 48 h, read-out: LPS IC50) of over 20 µM and an IC50 ([2]; Table 3, read-out: LPS IC50 (uM) (Suppl. Table 7)) of over 20 µM. For the same compound, the IC50 ([2]; dose response, LPS-induced microglia activation, read-out: LPS IC50) was over 20 µM, the LPS % inhibition ([2]; primary microglia HTS, LPS stimulation, increased cell size (>800 μm^2) as marker of activation) was 101% and the “Fibrin % cell toxicity” value (primary rat microglia [3]; [12]) was 1%. For the same compound, the IC50 (primary rat microglia [3]; Table 3) was over 20 µM, the IC50 (primary rat microglia [3]; cFib assay) was over 20 µM and the Hit ([4]; HTS hit classification) was “HIT (Hits were defined as molecules that exhibited greater than 50% inhibition of either fibrin or LPS activation)”. For the same compound, the “Quadrant (FIG. 5b)” value [4, 9] was “Q2”, the “Quadrant (FIG. 5b)” value ([4]; Table 1, screen at 10 μM) was “Q2” and the “Cherry-picked Hit (Suppl. Table 7)” value ([4]; Table 3) was “HIT (Hits were defined as molecules that exhibited greater than 50% inhibition of either fibrin or LPS activation)”. The “Quadrant (FIG. 5b)” value ([4]; Table 3, screen at 10 μM) was “Q2”, the “Cherry-picked Hit (Suppl. Table 7)” value ([4]; hit classification in microglia HTS) was “HIT (Hits were defined as molecules that exhibited greater than 50% inhibition of either fibrin or LPS activation)” and the “Quadrant (FIG. 5b)” value [4, 13] was “Q2”. For the same compound, the “Fibrin Selectivity” value [5] was 5, the “Fibrin Selectivity (LOG10)” value [5] was 0.71 and the IC50 ([5]; Table 1, dose response 0.001-20 μM, triplicates, primary rat microglia, 48 h, read-out: Fibrin IC50) was 4 µM. For the same compound, the IC50 ([5]; Table 3, read-out: Fibrin IC50 (uM) (Suppl. Table 7)) was 4 µM, the IC50 ([5]; dose response, fibrin-induced microglia activation, read-out: Fibrin IC50) was 4 µM and the IC50 ([5]; fibrin-induced microglia activation, dose response, read-out: Fibrin IC50 (uM) (Suppl. Table 7)) was 4 µM. It also gave a Fibrin % inhibition [5, 14] of 105%.

For `CCNC(=O)[C@@H]1CCCN1C(=O)[C@H](CCCNC(=N)N)NC(=O)[C@H](CC(C)C)NC(=O)[C@@H](CC(C)C)NC(=O)[C@H](Cc1ccc(O)cc1)NC(=O)[C@H](CO)NC(=O)[C@H](Cc1c[nH]c2ccccc12)NC(=O)[C@H](Cc1c[nH]cn1)NC(=O)[C@@H]1CCC(=O)N1` [Leuprolide], the “LPS % cell toxicity” value (primary rat microglia [1]; [15]) was −1%, the LPS % inhibition ([2]; primary microglia HTS, LPS stimulation, activation = cell size >800 μm2) was −3% and the “Fibrin % cell toxicity” value (primary rat microglia [3]; [16]) was 1%. For the same compound, the “Quadrant (FIG. 5b)” value [4, 13] was “Q4” and the Fibrin % inhibition [5, 17] was 5%.

`Cc1cc(-c2ccccc2)nnc1NCCN1CCOCC1` [Minaprine] was tested, and the “LPS % cell toxicity” value (primary rat microglia [1]; [11]) was 0%, the inhibition at 10 µM [2, 18] was 10% and the “Fibrin % cell toxicity” value (primary rat microglia [3]; [12]) was 0%. The “Quadrant (FIG. 5b)” value [4, 13] was “Q4” and the inhibition at 10 µM [5, 14] was -22%.

With `OC[C@@H](O)[C@@H](O)[C@H](O)[C@H](O)CO` [Mannitol] the “LPS % cell toxicity” value (primary rat microglia [1]; [11]) was 0%, the inhibition at 10 µM [2, 18] was 0% and the “Fibrin % cell toxicity” value (primary rat microglia [3]; [12]) was 1%. For the same compound, the “Quadrant (FIG. 5b)” value [4, 13] was “Q4” and the inhibition at 10 µM [5, 14] was 5%.

For `CC1(C)O[C@@H]2[C@@H](CO[C@@]3(COS(N)(=O)=O)OC(C)(C)O[C@@H]23)O1` [Topiramate], the “LPS % cell toxicity” value (primary rat microglia [1]; [6]) was 0%, the inhibition at 10 µM [2, 7] was 5% and the “Fibrin % cell toxicity” value (primary rat microglia [3]; [8]) was 1%. The “Quadrant (FIG. 5b)” value [4, 9] was “Q4” and the inhibition at 10 µM [5, 10] was 4%.

With `NS(=O)(=O)c1cc2c(cc1C(F)(F)F)NCNS2(=O)=O` [Hydroflumethiazide] the “LPS % cell toxicity” value (primary rat microglia [1]; [15]) was 0%, the inhibition at 10 µM [2, 19] was 11% and the “Fibrin % cell toxicity” value (primary rat microglia [3]; [16]) was 0%. The “Quadrant (FIG. 5b)” value [4, 13] was “Q4” and the inhibition at 10 µM [5, 17] was -9%.

With `Cc1nnc(NS(=O)(=O)c2ccc(N)cc2)s1` [Sulfamethizole] the “LPS % cell toxicity” value (primary rat microglia [1]; [6]) was 0%, the inhibition at 10 µM [2, 7] was 16% and the “Fibrin % cell toxicity” value (primary rat microglia [3]; [8]) was 1%. The “Quadrant (FIG. 5b)” value [4, 9] was “Q4” and the inhibition at 10 µM [5, 10] was -3%.

In the case of `CC1=C(C(=O)O)N2C(=O)[C@@H](NC(=O)[C@H](N)C3=CCC=CC3)[C@H]2SC1` [Cephradine], the “LPS % cell toxicity” value (primary rat microglia [1]; primary HTS, 10 μM, LPS assay, dead cells size <150 μm2) is reported as 0%, the inhibition at 10 µM ([2]; primary HTS, 10 μM, LPS-stimulated primary microglia) is reported as -1% and the “Fibrin % cell toxicity” value (primary rat microglia [3]; primary HTS, 10 μM, fibrin assay, dead cells size <150 μm2) is reported as 0%. For the same compound, the “Quadrant (FIG. 5b)” value ([4]; primary HTS, 10 μM) was “Q4” and the inhibition at 10 µM ([5]; primary HTS, 10 μM, fibrin-stimulated primary microglia) was -26%.

In the case of `Nc1nnc(-c2cccc(Cl)c2Cl)c(N)n1` [Lamotrigine], the “LPS % cell toxicity” value (primary rat microglia [1]; [15]) is reported as 0%, the inhibition at 10 µM [2, 19] is reported as 12% and the “Fibrin % cell toxicity” value (primary rat microglia [3]; [16]) is reported as 1%. For the same compound, the “Quadrant (FIG. 5b)” value [4, 13] was “Q4” and the inhibition at 10 µM [5, 17] was -12%.

For `CCOc1ccccc1OCCN[C@H](C)Cc1ccc(OC)c(S(N)(=O)=O)c1.Cl` [Tamsulosin Hydrchloride], the “LPS % cell toxicity” value (primary rat microglia [1]; [6]) was 0%, the LPS % inhibition [2, 7] was 12% and the “Fibrin % cell toxicity” value (primary rat microglia [3]; [8]) was 0%. For the same compound, the “Quadrant (FIG. 5b)” value [4, 9] was “Q4” and the Fibrin % inhibition [5, 10] was −31%.

In the case of `CN(C(=O)CN(CCO)CC(=O)N(C)C(C)(C)Cc1ccccc1)C(C)(C)Cc1ccccc1` [Oxethazaine], the “LPS % cell toxicity” value (primary rat microglia [1]; [11]) is reported as 0%, the inhibition at 10 µM [2, 18] is reported as 42% and the “Fibrin % cell toxicity” value (primary rat microglia [3]; [12]) is reported as 1%. The “Quadrant (FIG. 5b)” value [4, 13] was “Q4” and the inhibition at 10 µM [5, 14] was 25%.
